The record followed here is patent publication US8026282B2, “Phenoxyalkylcarboxylic acid derivatives in the treatment of irritable bowel syndrome” (Medicinova, Inc., priority 2004, dated 2011).

One series deals with rat bladder. The series is described as follows: Ovalbumin-sensitized rat model of inflammation-induced bladder hyperactivity (cystometry). It counts as in vivo, Sprague-Dawley rats. The conditions noted are these: for NVC/minute: 60 minutes prior. Here is the method: Sprague-Dawley rats (n=50; […]) were utilized for this study. The animals were divided into 5 groups (n=10). The first group served as the control and the second group was sensitized with ovalbumin (OA). The third, fourth, and fifth groups were also sensitized as described but subjected to oral gavaging with Compound 1 prior to acute ovalbumin challenge.
Sensitization of the animals was accomplished with an intraperitoneal injection of a mixture of 1 mg OA and 100 mg aluminum hydroxide suspended in 1 mL of saline. Fourteen days later, these sensitized rats were anaesthetized with a subcutaneous injection of urethane (1.2 g/kg) for intravesical OA (10 mg/mL) administration and evaluation of bladder hyperactivity. The animals in group 1 received saline (control), group 2 animals received about 2 mL of OA (10 mg/mL OA in sterile saline) and animal groups 3-5 animals received oral 1 (10, 30, 50 mg/kg in gum acacia suspension) 60 minutes prior to acute OA challenge (2 mL of 10 mg/mL OA).
All animals were subjected to evaluation of bladder hyperactivity. Briefly, a 1 cm incision was made along the centerline of the lower ventral abdomen. The bladder was exteriorized, and catheterized by means of a polyethylene tube (PE 50, Clay Adams) inserted into the bladder dome and sutured in place using a 2-0 braided silk suture. The bladder was returned to the abdomen, with the catheter line escaping through the incision. The catheter was then connected to a pressure transducer (UFI, Morro Bay, Calif.) and in turn, connected to an infusion pump (Harvard Apparatus, MA). During the continuous filling bladder cystometry, the pressure was recorded with the transducer using the program LabVIEW (National Instruments, TX).
For cystometry (See, Chuang Y C, Chancellor M B, Seki S, Yoshimura N, Tyagi P, Huang L, Lavelle J P, De Groat W C and Fraser M O: Intravesical protamine sulfate and potassium chloride as a model for bladder hyperactivity. Urology (2003) 61:664-70), the bladder was first infused with warm 0.9% saline (37° C.) at 40 μL/min (2.4 mL/hr) and at least 20 minutes of stable voiding cycles were recorded during infusion. This process was followed by intravesical infusion of OA (10 mg/mL) and bladder contractions were recorded. Frequency of contractions (voids), inter-contractile interval (ICI), and non-voiding contractions (NVC) were calculated from these recordings.

The nature of series [1]: Form present in human plasma. Format: in vivo. The conditions noted are these: metabolite of compound 1, human plasma.

SMILES strings stand for the structures.

For the compound `CCCc1c(SCCCOc2ccc(C(C)=O)c(OCCCC(=O)O)c2CCC)ccc(C(C)=O)c1O` [Compound 1, 4-[6-acetyl-3-[3-(4-acetyl-3-hydroxy-2-propylphenylthio)propoxy]-2-propylphenoxy]butyric acid], the NVC/minute in the series on rat bladder (Group 3: OA (10 mg/mL) infusion after oral 10 mg/kg, n = 10, NS compared to Group 2 (OA alone 0.9400 ± 0.2473)) is given as 0.4700 ± 0.1221 NVC/minute; in the series on rat bladder (Group 4: OA (10 mg/mL) infusion after oral 30 mg/kg, n = 9, P < 0.05 compared to Group 2), 0.3444 ± 0.06894 NVC/minute; in the series with rat bladder (Group 5: OA (10 mg/mL) infusion after oral 50 mg/kg, n = 9, P < 0.05 compared to Group 2) it was 0.1778 ± 0.08296 NVC/minute. The voiding frequency result in the series with rat bladder (control (group 1) versus treatment groups (2-5)) is reported as “No significant differences”. For the same compound, in the series on rat bladder (pre-treatment, oral 10, 30, 50 mg/kg), the “OA-induced changes in NVC and ICI” value was “dose-dependent inhibition”. Moreover, in the series on rat bladder (pre-treatment, preferably at 30 and 50 mg/kg), the “protection against OA-induced changes (increase in NVC, decrease in ICI)” value was “significant protection”.

`CCCc1c(SCCCOc2ccc(C(C)O)c(OCCCC(=O)O)c2CCC)ccc(C(C)=O)c1O` (stereo not shown) [Compound 2]: the “form in human plasma” value in series [1] is “dominant form”.
